Experiment [1] deals with T1, KRAS_G12D and cRAF (Homo sapiens, UniProt P01116, G12D).
T1 construct: purchased
The experiment is described as follows: Inhibition of KRAS_G12D/cRAF binding (Cisbio binding kit, 665/615 ratio), Effect Embodiment B. The note with it: read-out: GTP-KRAS-G12D:CRAF IC50. The procedure, abridged: (§1)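 Compounds underwent 3-fold dilution from their storage solutions (11 points), were transferred to assay wells in duplicate with DMSO held at 1% final, and were briefly centrifuged.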

Experiment [2] addresses T2, KRAS_WT and SOS1 (Homo sapiens, UniProt P01116).
T2 construct: purchased
In words: Inhibition of KRAS_WT/SOS1 binding (Cisbio binding kit, 665/615 ratio), Effect Embodiment C. Conditions: read-out: GTP-KRAS-WT:SOS1 IC50. Put shortly:
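Compounds tested as 3-fold, 11-point dilutions in duplicate at 1% DMSO final against the KRAS_WT/SOS1 binding system. IC50 derived by nonlinear regression fit.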

Experiment [3] addresses T3, KRAS-G12D and SOS1 (Homo sapiens, UniProt P01116, G12D).
T3 construct: purchased
The experiment is described as follows: Inhibition of KRAS-G12D/SOS1 binding (Cisbio binding kit, 665/615 ratio), Effect Embodiment A. Conditions: read-out: GTP-KRAS-G12D:SOS1 IC50. Put shortly: as §1

Structures can show the parent of a compound that is named as a salt.

T2 sequence (P01116 1-188 isoform P01116-2): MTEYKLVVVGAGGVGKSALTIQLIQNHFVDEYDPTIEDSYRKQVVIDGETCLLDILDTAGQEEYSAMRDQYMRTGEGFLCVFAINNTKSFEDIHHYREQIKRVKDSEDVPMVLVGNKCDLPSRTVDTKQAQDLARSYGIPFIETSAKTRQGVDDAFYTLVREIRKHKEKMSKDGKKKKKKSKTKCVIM
T3 sequence (P01116 1-188 isoform P01116-2 G12D): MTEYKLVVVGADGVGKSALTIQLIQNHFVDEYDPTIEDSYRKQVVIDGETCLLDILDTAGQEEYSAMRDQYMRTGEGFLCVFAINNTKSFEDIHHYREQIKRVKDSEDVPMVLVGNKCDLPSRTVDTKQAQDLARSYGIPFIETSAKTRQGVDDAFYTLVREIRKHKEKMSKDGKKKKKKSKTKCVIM
T1 sequence (P01116 1-188 isoform P01116-2 G12D): as above

Consider `CN1CCN(c2nc(N3CC4CCC(C3)N4)c3cc(Cl)c(-c4cc(O)cc5ccccc45)c(F)c3n2)CC1` (single isomer, unassigned) [Compound 52a, 4-((S or R)-4-((1R,5S)-3,8-diazabicyclo[3.2.1]octan-3-yl)-6-chloro-8-fluoro-2-(4-methylpiperazin-1-yl)quinazolin-7-yl)naphthalen-2-ol], for which the IC50 – broadly, the point on the concentration scale where inhibition reaches its midpoint – turned out to be 9210 nM in experiment [1], 28900 nM in experiment [2] and 1140 nM in experiment [3].
With `Oc1cc(-c2c(Cl)cc3c(N4CC5CCC(C4)N5)nc(OCCCN4CCCC4)nc3c2F)c2ccccc2c1` (single isomer, unassigned) [Compound 63a, 4-((S or R)-4-((1R,5S)-3,8-diazabicyclo[3.2.1]octan-3-yl)-6-chloro-8-fluoro-2-(3-(pyrrolidin-1-yl)propoxy)quinazolin-7-yl)naphthalen-2-ol], the IC50 came to 134 nM in experiment [1], 1580 nM in experiment [2] and 17.8 nM in experiment [3].
For `CN(C)C1CN(c2nc(N3[C@@H]4CC[C@H]3CNC4)c3cc(Cl)c(-c4cc(O)cc5ccccc45)c(F)c3n2)C1` (single isomer, unassigned) [Compound 6a, (R or S)-4-(4-((1R,5S)-3,8-diazabicyclo [3.2.1]octan-8-yl)-6-chloro-2-(3-(dimethylamino)azetidin-1-yl)-8-fluoro-quinazolin-7-yl)naphthalen-2-ol], the IC50 in experiment [1] was found to be 66 nM; in experiment [2], 293 nM; in experiment [3], 66.4 nM.
With `NCCCCOc1nc(N2CC3CCC(C2)N3)c2cc(Cl)c(-c3cc(O)cc4ccccc34)c(F)c2n1` (single isomer, unassigned) [Compound 95, 4-((S or R)-2-(4-aminobutoxy)-4-((1R,5S)-3,8-diazabicyclo[3.2.1]octan-3-yl)-6-chloro-8-fluoroquinazolin-7-yl)naphthalen-2-ol dihydrochloride], the values for the IC50 in experiment [1], in experiment [2] and in experiment [3] were 284 nM, 6660 nM and 48.2 nM, respectively.
Turning to `CCc1cccc2cc(O)cc(-c3c(F)cc4c(N5CC6CCC(C5)N6)nc(OC[C@H](C)CN5C6CCC5COC6)nc4c3F)c12` (single isomer, unassigned) [Compound 284a, (4S or 4R)-4-(2-((2R)-3-(3-oxa-8-azabicyclo[3.2.1]octan-8-yl)-2-methylpropoxy)-4-((1R,5S)-3,8-diazabicyclo[3.2.1]octan-3-yl)-6,8-difluoroquinazolin-7-yl)-5-ethylnaphthalen-2-ol dihydrochloride], the figures for the IC50 in experiment [1], in experiment [2] and in experiment [3] were 11 nM, 251 nM and 17.3 nM, respectively.
For the compound `CCc1c(F)ccc2cc(O)cc(-c3c(F)cc4c(N5CC6CCC(C5)N6)nc(OCCCN5C[C@@H](C)O[C@@H](C)C5)nc4c3F)c12` (single isomer, unassigned) [Compound 250a, (S or R)-4-(4-((1R,5S)-3,8-diazacyclo[3.2.1]octan-3-yl)-2-(3-((2R,6S)-2,6-dimethylmorpholinyl)propoxy)-6,8-difluoroquinazolin-7-yl)-5-ethyl-6-fluoronaphthalen-2-ol formate], the values for the IC50 in experiment [1], in experiment [2] and in experiment [3] were 14.6 nM, 75.2 nM and 8.42 nM, respectively.
On to `Oc1cc(-c2c(Cl)cc3c(N4CC5CCC(C4)N5)nc(OCCCN4CCC5(CCOC5)CC4)nc3c2F)c2ccccc2c1` (single isomer, unassigned) [Compound 261, 4-((S or R)-2-(3-(2-oxa-8-azaspiro[4.5]decan-8-yl)propoxy)-4-((1R,5S)-3,8-diazacyclo[3.2.1]octan-3-yl)-6-chloro-8-fluoroquinazolin-7-yl)naphthalen-2-ol diformate], for which the values for the half-maximal inhibitory concentration (IC50) in experiment [1], in experiment [2] and in experiment [3] were 102 nM, 1080 nM and 18.7 nM, respectively.
Taken in the same sequence, the figures for `Oc1cc(-c2c(Cl)cc3c(N4CC5CCC(C4)N5)nc(OCC45CCCN4CCC5)nc3c2F)c2ccccc2c1` (single isomer, unassigned) [Compound 199, 4-((R or S)-4-((1R,5S)-3,8-diazabicyclo[3.2.1]octan-3-yl)-6-chloro-8-fluoro-2-((tetrahydro-1H-pyrrolin-7a(5H)-yl)methoxy)quinazolin-7-yl)naphthalen-2-ol diformate] were 9 nM, 58.4 nM and 13.2 nM.
As for `C[C@H]1CN(CCCOc2nc(N3CC4CCC(C3)N4)c3cc(Cl)c(-c4cc(O)cc5ccccc45)c(F)c3n2)CCO1` (single isomer, unassigned) [Compound 246, 4-((S or R)-4-((1R,5S)-3,8-diazacyclo[3.2.1]octan-3-yl)-6-chloro-8-fluoro-2-(3-((S)-2-methylmorpholinyl)propoxy)quinazolin-7-yl)naphthalen-2-ol formate], the IC50 in experiment [1] was determined as 218 nM; in experiment [2], 3700 nM; in experiment [3], 37.4 nM.
On to `Oc1cc(-c2c(Cl)cc3c(N4CC5CCC(C4)N5)nc(OCC45CCCN4CCC5)nc3c2F)c2ccccc2c1` (single isomer, unassigned) [Compound 58a, 4-((S or R)-4-((1R,5S)-3,8-diazabicyclo[3.2.1]octan-3-yl)-6-chloro-8-fluoro-2-((tetrahydro-1H-pyrrolin-7a(5H)-yl)methoxy)quinazolin-7-yl)naphthalen-2-o1], for which the IC50 was 12.6 nM in experiment [1], 47.2 nM in experiment [2] and 20.4 nM in experiment [3].
Taken in the same sequence, the figures for `CN1CC(C)(COc2nc(N3CC4CCC(C3)N4)c3cc(Cl)c(-c4cc(O)cc5ccccc45)c(F)c3n2)C1` (single isomer, unassigned) [Compound 110, 4-((S or R)-4-((1R,5S)-3,8-diazacyclo[3.2.1]octan-3-yl)-6-chloro-2-((1,3-dimethylnonanetriacyl)methoxy)-8-fluoroquinazin-7-yl)naphthalen-2-ol ditrifluoroacetate] were 143 nM, 1530 nM and 39.6 nM.
With `Oc1cc(-c2c(Cl)cc3c(N4CC5CCC(C4)N5)nc(OCCCN4CCOC5(CC5)C4)nc3c2F)c2ccccc2c1` (single isomer, unassigned) [Compound 240, 4-((S or R)-2-(3-(4-oxa-7-azaspiro[2.5]octan-7-yl)propoxy)-4-((1R,5S)-3,8-diazacyclo[3.2.1]octan-3-yl)-6-chloro-8-fluoroquinazolin-7-yl)naphthalen-2-ol formate], the IC50 in experiment [1] was found to be 164 nM; in experiment [2], 2210 nM; in experiment [3], 39.1 nM.
Consider `CC1OCCN(CCCOc2nc(N3CC4CCC(C3)N4)c3cc(Cl)c(-c4cc(O)cc5ccccc45)c(F)c3n2)C1C` (single isomer, unassigned) [Compound 265c, 4-((R or S)-4-((1R,5S)-3,8-diazabicyclo[3.2.1]octan-3-yl)-6-chloro-2-(3-((2S or 2R, 3S or 3R)-(2,3-dimethylmorpholinyl)propoxy)-8-fluoroquinazolin-7-yl)naphthalen-2-ol diformate], for which the IC50 in experiment [1] was found to be 135 nM; in experiment [2], 1280 nM; in experiment [3] it was 49.8 nM.
Taken in the same sequence, the figures for `C[C@@H]1CN(CCCOc2nc(N3CC4CCC(C3)N4)c3cc(Cl)c(-c4cc(O)cc5ccccc45)c(F)c3n2)CCO1` (single isomer, unassigned) [Compound 241, 4-((S or R)-4-((1R,5S)-3,8-diazacyclo[3.2.1]octan-3-yl)-6-chloro-8-fluoro-2-(3-((R)-2-methylmorpholinyl)propoxy)quinazolin-7-yl)naphthalen-2-ol formate] were 203 nM, 3600 nM and 49.7 nM.
Taken in the same sequence, the figures for `CCc1c(F)ccc2cc(O)cc(-c3c(Cl)cc4c(N5CC6CCC(C5)N6)nc(OCCCN5C6CCC5COC6)nc4c3F)c12` (single isomer, unassigned) [compound 251] were 67.6 nM, 257 nM and 27.6 nM.
As for `C=CCCOCCCN1CCC[C@H]1COc1nc(N2CC3CCC(C2)N3)c2cc(F)c(-c3cc(O)cc4ccc(F)c(CC)c34)c(F)c2n1` (single isomer, unassigned) [Compound 249, 4-((S or R)-4-((1R,5S)-3,8-diazacyclo[3.2.1]octan-3-yl)-2-((S)-1-(3-(but-3-en-1-oxy)propyl)pyrrolidin-2-yl)methoxy)-6,8-difluoroquinazolin-7-yl)-5-ethyl-6-fluoronaphthalen-2-ol dihydrochloride], the IC50 was found to be 16.4 nM in experiment [1], 84.6 nM in experiment [2] and 23.7 nM in experiment [3].
On to `CO[C@@H]1C[C@H]2CC[C@@H](C1)N2C[C@@H](C)COc1nc(N2CC3CCC(C2)N3)c2cc(Cl)c(-c3cc(O)cc4ccccc34)c(F)c2n1` (single isomer, unassigned) [Compound 224, 4-((S or R)-4-((1R,5S)-3,8-diazabicyclo[3.2.1]octan-3-yl)-6-chloro-8-fluoro-2-((R)-3-((1R,3S,5S)-3-methoxy-8-azabicyclo[3.2.1]octan-8-yl)-2-methylpropoxy)quinazolin-7-yl)naphthalen-2-ol diformate], for which the concentration for half-maximal inhibition (IC50) in experiment [1] was determined as 18.6 nM; in experiment [2] it was 1350 nM; in experiment [3], 13.2 nM.
For `Oc1cc(-c2c(Cl)cc3c(N4CC5CCC(C4)N5)nc(OCCCN4CC5CCC4CO5)nc3c2F)c2ccccc2c1` (single isomer, unassigned) [Compound 187b, (R or S)-4-(2-(3-((1R,4R or 1S,4S)-2-oxa-5-azabicyclo[2.2.2]octan-5-yl)propoxy)-4-((1R,5S)-3,8-diazabicyclo[3.2.1]octan-3-yl)-6-chloro-8-fluoroquinazolin-7-yl)naphthalen-2-ol diformate] the same measures were 115 nM, 1670 nM and 27.7 nM.

These data come from patent publication US20230365563A1, “QUINAZOLINE COMPOUND AND APPLICATION THEREOF” (SHANGHAI PHARMACEUTICALS HOLDING CO., LTD., priority 2020, published 2023).
